Test system: healthy subjects
Assay: Phase I clinical trial, single-dose groups: uric acid index before and after treatment
Type: in vivo, human
Conditions: for Uric acid (UA) Mean / Uric acid (UA) Median / Uric acid (UA) Minimum value / Uric acid (UA) maximum value / Uric acid (UA) Changes over baseline at last visit (on day 6), Mean / Uric acid (UA) Changes over baseline at last visit (on day 6), Median / Uric acid (UA) Changes over baseline at last visit (on day 6), Minimum value / Uric acid (UA) Changes over baseline at last visit (on day 6), maximum value / Uric acid (UA) Changes over baseline on day 2, Mean / Uric acid (UA) Changes over baseline on day 2, Median / Uric acid (UA) Changes over baseline on day 2, Minimum value / Uric acid (UA) Changes over baseline on day 2, maximum value / Uric acid (UA) Changes over baseline on day 4, Mean / Uric acid (UA) Changes over baseline on day 4, Median / Uric acid (UA) Changes over baseline on day 4, Minimum value / Uric acid (UA) Changes over baseline on day 4, maximum value: N = 9
Method: The changes of uric acid levels in subjects in single-dose and multi-dose groups of Compound I are shown in FIG. 1A (single dose of 6 mg and single dose of 10 mg), FIG. 1B (single dose of 20 mg and single dose of 30 mg), and FIG. 2 (multi-dose of 10 mg and multi-dose of 20 mg). The corresponding results are also shown in Tables 1.1, 1.2, 1.3, and 2.1, and tables 2.2, 2.3, and 2.4.

[1] = Last visit (day 6), single dose 6 mg
[2] = Last visit (day 6), single dose 10 mg
[3] = Last visit (day 6), single dose 20 mg
[4] = Last visit (day 6), single dose 30 mg

SMILES: COc1cccc2c1ncc1c(=O)n(C3CCC(C(=O)O)CC3)c(=O)n(-c3cccc(Cl)c3)c12 (stereo not shown) [Compound I, 4-[1-(3-chlorophenyl)-7-methoxy-2,4-dioxo-pyrimido[5,4-c]quinolin-3-yl]cyclohexanecarboxylic acid]
- Uric acid (UA) Mean (Baseline, single dose 6 mg): 315.9 µmol/L
- Uric acid (UA) Median (Baseline, single dose 6 mg): 319.0 µmol/L
- Uric acid (UA) Minimum value (Baseline, single dose 6 mg): 185 µmol/L
- Uric acid (UA) maximum value (Baseline, single dose 6 mg): 429 µmol/L
- Uric acid (UA) Mean (Baseline, single dose 10 mg): 335.2 µmol/L
- Uric acid (UA) Median (Baseline, single dose 10 mg): 330.0 µmol/L
- Uric acid (UA) Minimum value (Baseline, single dose 10 mg): 224 µmol/L
- Uric acid (UA) maximum value (Baseline, single dose 10 mg): 446 µmol/L
- Uric acid (UA) Mean (Baseline, single dose 20 mg): 326.0 µmol/L
- Uric acid (UA) Median (Baseline, single dose 20 mg): 320.0 µmol/L
- Uric acid (UA) Minimum value (Baseline, single dose 20 mg): 256 µmol/L
- Uric acid (UA) maximum value (Baseline, single dose 20 mg): 436 µmol/L
- Uric acid (UA) Mean (Baseline, single dose 30 mg): 300.9 µmol/L
- Uric acid (UA) Median (Baseline, single dose 30 mg): 277.0 µmol/L
- Uric acid (UA) Minimum value (Baseline, single dose 30 mg): 209 µmol/L
- Uric acid (UA) maximum value (Baseline, single dose 30 mg): 401 µmol/L
- Uric acid (UA) Mean (Day 2, single dose 6 mg): 272.9 µmol/L
- Uric acid (UA) Median (Day 2, single dose 6 mg): 272.0 µmol/L
- Uric acid (UA) Minimum value (Day 2, single dose 6 mg): 160 µmol/L
- Uric acid (UA) maximum value (Day 2, single dose 6 mg): 347 µmol/L
- Uric acid (UA) Mean (Day 2, single dose 10 mg): 266.1 µmol/L
- Uric acid (UA) Median (Day 2, single dose 10 mg): 254.0 µmol/L
- Uric acid (UA) Minimum value (Day 2, single dose 10 mg): 161 µmol/L
- Uric acid (UA) maximum value (Day 2, single dose 10 mg): 447 µmol/L
- Uric acid (UA) Mean (Day 2, single dose 20 mg): 194.9 µmol/L
- Uric acid (UA) Median (Day 2, single dose 20 mg): 209.0 µmol/L
- Uric acid (UA) Minimum value (Day 2, single dose 20 mg): 105 µmol/L
- Uric acid (UA) maximum value (Day 2, single dose 20 mg): 251 µmol/L
- Uric acid (UA) Mean (Day 2, single dose 30 mg): 135.8 µmol/L
- Uric acid (UA) Median (Day 2, single dose 30 mg): 144.0 µmol/L
- Uric acid (UA) Minimum value (Day 2, single dose 30 mg): 60 µmol/L
- Uric acid (UA) maximum value (Day 2, single dose 30 mg): 178 µmol/L
- Uric acid (UA) Mean (Day 4, single dose 6 mg): 285.9 µmol/L
- Uric acid (UA) Median (Day 4, single dose 6 mg): 300.0 µmol/L
- Uric acid (UA) Minimum value (Day 4, single dose 6 mg): 193 µmol/L
- Uric acid (UA) maximum value (Day 4, single dose 6 mg): 378 µmol/L
- Uric acid (UA) Mean (Day 4, single dose 10 mg): 302.8 µmol/L
- Uric acid (UA) Median (Day 4, single dose 10 mg): 304.0 µmol/L
- Uric acid (UA) Minimum value (Day 4, single dose 10 mg): 199 µmol/L
- Uric acid (UA) maximum value (Day 4, single dose 10 mg): 462 µmol/L
- Uric acid (UA) Mean (Day 4, single dose 20 mg): 277.7 µmol/L
- Uric acid (UA) Median (Day 4, single dose 20 mg): 279.0 µmol/L
- Uric acid (UA) Minimum value (Day 4, single dose 20 mg): 179 µmol/L
- Uric acid (UA) maximum value (Day 4, single dose 20 mg): 340 µmol/L
- Uric acid (UA) Mean (Day 4, single dose 30 mg): 217.9 µmol/L
- Uric acid (UA) Median (Day 4, single dose 30 mg): 232.0 µmol/L
- Uric acid (UA) Minimum value (Day 4, single dose 30 mg): 140 µmol/L
- Uric acid (UA) maximum value (Day 4, single dose 30 mg): 266 µmol/L
- Uric acid (UA) Mean [1]: 327.2 µmol/L
- Uric acid (UA) Median [1]: 341.0 µmol/L
- Uric acid (UA) Minimum value [1]: 227 µmol/L
- Uric acid (UA) maximum value [1]: 431 µmol/L
- Uric acid (UA) Mean [2]: 357.3 µmol/L
- Uric acid (UA) Median [2]: 367.0 µmol/L
- Uric acid (UA) Minimum value [2]: 243 µmol/L
- Uric acid (UA) maximum value [2]: 508 µmol/L
- Uric acid (UA) Mean [3]: 341.1 µmol/L
- Uric acid (UA) Median [3]: 358.0 µmol/L
- Uric acid (UA) Minimum value [3]: 237 µmol/L
- Uric acid (UA) maximum value [3]: 414 µmol/L
- Uric acid (UA) Mean [4]: 287.4 µmol/L
- Uric acid (UA) Median [4]: 283.0 µmol/L
- Uric acid (UA) Minimum value [4]: 207 µmol/L
- Uric acid (UA) maximum value [4]: 364 µmol/L
- Uric acid (UA) Changes over baseline at last visit (on day 6), Mean (single dose 6 mg): 11.3 µmol/L
- Uric acid (UA) Changes over baseline at last visit (on day 6), Median (single dose 6 mg): 22.0 µmol/L
- Uric acid (UA) Changes over baseline at last visit (on day 6), Minimum value (single dose 6 mg): -48 µmol/L
- Uric acid (UA) Changes over baseline at last visit (on day 6), maximum value (single dose 6 mg): 52 µmol/L
- Uric acid (UA) Changes over baseline on day 2, Mean (single dose 6 mg): -43.0 µmol/L
- Uric acid (UA) Changes over baseline on day 2, Median (single dose 6 mg): -32.0 µmol/L
- Uric acid (UA) Changes over baseline on day 2, Minimum value (single dose 6 mg): -112 µmol/L
- Uric acid (UA) Changes over baseline on day 2, maximum value (single dose 6 mg): 42 µmol/L
- Uric acid (UA) Changes over baseline on day 4, Mean (single dose 6 mg): -30.0 µmol/L
- Uric acid (UA) Changes over baseline on day 4, Median (single dose 6 mg): -18.0 µmol/L
- Uric acid (UA) Changes over baseline on day 4, Minimum value (single dose 6 mg): -86 µmol/L
- Uric acid (UA) Changes over baseline on day 4, maximum value (single dose 6 mg): 31 µmol/L
- Uric acid (UA) Changes over baseline at last visit (on day 6), Mean (single dose 10 mg): 22.1 µmol/L
- Uric acid (UA) Changes over baseline at last visit (on day 6), Median (single dose 10 mg): 19.0 µmol/L
- Uric acid (UA) Changes over baseline at last visit (on day 6), Minimum value (single dose 10 mg): -27 µmol/L
- Uric acid (UA) Changes over baseline at last visit (on day 6), maximum value (single dose 10 mg): 88 µmol/L
- Uric acid (UA) Changes over baseline on day 2, Mean (single dose 10 mg): -69.1 µmol/L
- Uric acid (UA) Changes over baseline on day 2, Median (single dose 10 mg): -70.0 µmol/L
- Uric acid (UA) Changes over baseline on day 2, Minimum value (single dose 10 mg): -133 µmol/L
- Uric acid (UA) Changes over baseline on day 2, maximum value (single dose 10 mg): 1 µmol/L
- Uric acid (UA) Changes over baseline on day 4, Mean (single dose 10 mg): -32.4 µmol/L
- Uric acid (UA) Changes over baseline on day 4, Median (single dose 10 mg): -29.0 µmol/L
- Uric acid (UA) Changes over baseline on day 4, Minimum value (single dose 10 mg): -92 µmol/L
- Uric acid (UA) Changes over baseline on day 4, maximum value (single dose 10 mg): 23 µmol/L
- Uric acid (UA) Changes over baseline at last visit (on day 6), Mean (single dose 20 mg): 15.1 µmol/L
- Uric acid (UA) Changes over baseline at last visit (on day 6), Median (single dose 20 mg): 9.0 µmol/L
- Uric acid (UA) Changes over baseline at last visit (on day 6), Minimum value (single dose 20 mg): -34 µmol/L
- Uric acid (UA) Changes over baseline at last visit (on day 6), maximum value (single dose 20 mg): 122 µmol/L
- Uric acid (UA) Changes over baseline on day 2, Mean (single dose 20 mg): -131.1 µmol/L
- Uric acid (UA) Changes over baseline on day 2, Median (single dose 20 mg): -130.0 µmol/L
- Uric acid (UA) Changes over baseline on day 2, Minimum value (single dose 20 mg): -211 µmol/L
- Uric acid (UA) Changes over baseline on day 2, maximum value (single dose 20 mg): -42 µmol/L
- Uric acid (UA) Changes over baseline on day 4, Mean (single dose 20 mg): -48.3 µmol/L
- Uric acid (UA) Changes over baseline on day 4, Median (single dose 20 mg): -62.0 µmol/L
- Uric acid (UA) Changes over baseline on day 4, Minimum value (single dose 20 mg): -106 µmol/L
- Uric acid (UA) Changes over baseline on day 4, maximum value (single dose 20 mg): 50 µmol/L
- Uric acid (UA) Changes over baseline at last visit (on day 6), Mean (single dose 30 mg): -13.4 µmol/L
- Uric acid (UA) Changes over baseline at last visit (on day 6), Median (single dose 30 mg): -20.0 µmol/L
- Uric acid (UA) Changes over baseline at last visit (on day 6), Minimum value (single dose 30 mg): -75 µmol/L
- Uric acid (UA) Changes over baseline at last visit (on day 6), maximum value (single dose 30 mg): 58 µmol/L
- Uric acid (UA) Changes over baseline on day 2, Mean (single dose 30 mg): -165.1 µmol/L
- Uric acid (UA) Changes over baseline on day 2, Median (single dose 30 mg): -152.0 µmol/L
- Uric acid (UA) Changes over baseline on day 2, Minimum value (single dose 30 mg): -261 µmol/L
- Uric acid (UA) Changes over baseline on day 2, maximum value (single dose 30 mg): -79 µmol/L
- Uric acid (UA) Changes over baseline on day 4, Mean (single dose 30 mg): -83.0 µmol/L
- Uric acid (UA) Changes over baseline on day 4, Median (single dose 30 mg): -69.0 µmol/L
- Uric acid (UA) Changes over baseline on day 4, Minimum value (single dose 30 mg): -162 µmol/L
- Uric acid (UA) Changes over baseline on day 4, maximum value (single dose 30 mg): -3 µmol/L
- uric acid level in the subjects, overall clinical trial result (single-dose and multi-dose groups, p<0.05): reduces the uric acid level in the subjects significantly
- uric acid level on the following days (days 4 and 6) (single-dose groups): gradually recovered
- uric acid level the next day after administration (single-dose groups, certain dose dependence): decreases obviously

— patent US20250000865A1, “COMPOUND FOR REDUCING URIC ACID LEVELS” (NEWSOARA BIOPHARMA CO., LTD., priority 2021, published 2025)
